Data on one compound can be found in PubChem BioAssay AID1259407 (Chemical Carcinogenesis Research Information System (CCRIS), 2018).

Calls of active or inactive are those of the source. No rule for the calls is given here.

The data set concerns CCRIS mutagenicity, Ames/micronucleus/aberration tests. The data set can be described thus: CCRIS mutagenicity studies.

In the case of `CCn1cc(C(=O)O)c(=O)c2cc(F)c(-c3ccncc3)c(F)c21`, the mutagenic call (Test System: AMES SALMONELLA TYPHIMURIUM, Strain/Indicator: TA98, Metabolic Activation: MOUSE, LIVER, S-9, AROCLOR 1254, Method: STANDARD PLATE) was “inactive; negative”; the mutagenic call (Test System: AMES SALMONELLA TYPHIMURIUM, Strain/Indicator: TA98, Metabolic Activation: NONE, Method: STANDARD PLATE) is “inactive; negative”; the mutagenic call (Test System: AMES SALMONELLA TYPHIMURIUM, Strain/Indicator: TA98, Metabolic Activation: RAT, LIVER, S-9, AROCLOR 1254, Method: STANDARD PLATE) is “inactive; negative”; the mutagenic call (Test System: AMES SALMONELLA TYPHIMURIUM, Strain/Indicator: TA100, Metabolic Activation: MOUSE, LIVER, S-9, AROCLOR 1254, Method: STANDARD PLATE) was “inactive; negative”; the mutagenic call (Test System: AMES SALMONELLA TYPHIMURIUM, Strain/Indicator: TA100, Metabolic Activation: NONE, Method: STANDARD PLATE) was “inactive; negative”; the mutagenic call (Test System: AMES SALMONELLA TYPHIMURIUM, Strain/Indicator: TA100, Metabolic Activation: RAT, LIVER, S-9, AROCLOR 1254, Method: STANDARD PLATE) was “inactive; negative”. Moreover, the mutagenic call by setting is: (Test System: AMES SALMONELLA TYPHIMURIUM, Strain/Indicator: TA1535, Metabolic Activation: MOUSE, LIVER, S-9, AROCLOR 1254, Method: STANDARD PLATE) “inactive; negative”; (Test System: AMES SALMONELLA TYPHIMURIUM, Strain/Indicator: TA1535, Metabolic Activation: NONE, Method: STANDARD PLATE) “inactive; negative”; (Test System: AMES SALMONELLA TYPHIMURIUM, Strain/Indicator: TA1535, Metabolic Activation: RAT, LIVER, S-9, AROCLOR 1254, Method: STANDARD PLATE) “inactive; negative”; (Test System: AMES SALMONELLA TYPHIMURIUM, Strain/Indicator: TA1537, Metabolic Activation: MOUSE, LIVER, S-9, AROCLOR 1254, Method: STANDARD PLATE) “inactive; negative”; (Test System: AMES SALMONELLA TYPHIMURIUM, Strain/Indicator: TA1537, Metabolic Activation: NONE, Method: STANDARD PLATE) “inactive; negative”; (Test System: AMES SALMONELLA TYPHIMURIUM, Strain/Indicator: TA1537, Metabolic Activation: RAT, LIVER, S-9, AROCLOR 1254, Method: STANDARD PLATE) “inactive; negative”. The mutagenic call runs as follows: (Test System: CHINESE HAMSTER OVARY, Strain/Indicator: CHO-K1-CMZ (HGPRT), Metabolic Activation: NONE) “active; positive”; (Test System: CHINESE HAMSTER V-79, Strain/Indicator: V-79/6-THIOGUANINE, Metabolic Activation: NONE) “active; positive”; (Test System: CHINESE HAMSTER V-79, Strain/Indicator: V-79/6-THIOGUANINE, Metabolic Activation: RAT, LIVER, S-9, AROCLOR 1254) “active; positive”; (Test System: MOUSE LYMPHOMA, Strain/Indicator: L5178Y (TK+/TK-), Metabolic Activation: NONE, Method: SUSPENSION/PLATE) “active; positive”; (Test System: MOUSE LYMPHOMA, Strain/Indicator: L5178Y (TK+/TK-), Metabolic Activation: RAT, LIVER, S-9, Method: SUSPENSION/PLATE) “active; positive”.
